The assay deals with human Autotaxin protein (Homo sapiens, UniProt Q13822). Kind of assay: Evaluation of the inhibitory activity against human Autotaxin protein (18:1 LysoPC substrate, choline assay kit, absorbance at 570 nm). It is filed as biochemical. The conditions noted are these: at 500nM compound, 2 hours at 37 °C, read-out: Inhibition rate (%, at 500nM). How it is done: Solutions of each synthesized compound (80 uM, 100% dimethyl sulfoxide) were sequentially diluted 5-fold with dimethyl sulfoxide to prepare 6 concentrations. Each concentration of the compound was diluted 2-fold with 1x test buffer (50 mM Tris-Cl (pH 8.0), 5 mM KCl, 1 mM CaCl2, 1 mM MgCl2, 140 mM NaCl, deionized water, 1 mg/mL BSA), and 1 uL (1.25% dimethylsulfoxide) of the diluted mixture was dispensed into each well of a 96-well clear round-bottom plate. 9 uL of 1x test buffer was added, and 20 uL of 240 nM human autotaxin protein (buffer: 50 mM Tris-HCl, pH 8.0, with 150 mM sodium chloride and 20% glycerol) was added. 10 uL of sonicated 360 uM 18:1 LysoPC (diluted with 1x assay buffer) was added. The reaction was performed for 2 hours in a shaking incubator at 37 °C, and a secondary reaction mixture (choline assay kit, KA1662) (65 uL of 1x assay buffer: 1 uL of choline oxidase: 1 uL of dye probe) was prepared. 60 uL of the secondary reaction mixture was added to the plate where the reaction was performed, and incubated for 30 minutes in a shaker. The absorbance value was measured at a wavelength of 570 nm using a SpectraMax iD3 microplate reader. The percentage inhibition activity value (% inhibition) was calculated by the formula: (1 - absorbance value test group / absorbance value control group) X 100.

One may read the inhibition as the share of the control response that was lost under treatment. Regarding `N#Cc1cccc(CNc2ncc(-c3nnc(N4C[C@@H]5[C@H](C4)[C@H]5c4cnn[nH]4)o3)cn2)c1` [Example 25, 3-(((5-(5-((1R,5S,6r)-6-(1H-1,2,3-Triazol-5-yl)-3-azabicyclo[3.1.0]hexan-3-yl)-1,3,4-oxadiazol-2-yl)pyrimidin-2-yl)amino)methyl)benzonitrile], the inhibition at 0.5 µM stood at 95.2%. Turning to `FC(F)(F)c1ccc(CCNc2ncc(-c3nnc(N4C[C@@H]5[C@H](C4)[C@H]5c4cnn[nH]4)o3)cn2)cc1` [Example 26, 5-(5-((1R,5S,6r)-6-(1H-1,2,3-Triazol-5-yl)-3-azabicyclo[3.1.0]hexan-3-yl)-1,3,4-oxadiazol-2-yl)-N-(4-(trifluoromethyl)phenethyl)pyrimidin-2-amine], the inhibition at 0.5 µM stood at 98.4%.

Regarding `Brc1ccc(CCNc2ncc(-c3nnc(N4C[C@@H]5[C@H](C4)[C@H]5c4cnn[nH]4)o3)cn2)cc1` [Example 27, 5-(5-((1R,58,6r)-6-(1H-1,2,3-Triazol-5-yl)-3-azabicyclo[3.1.0]hexan-3-yl)-1,3,4-oxadiazol-2-yl)-N-(4-bromophenethyl)pyrimidin-2-amine], the inhibition at 0.5 µM was 98.6%. Next, `Clc1ccccc1CCNc1ncc(-c2nnc(N3C[C@@H]4[C@H](C3)[C@H]4c3cnn[nH]3)o2)cn1` [Example 28, 5-(5-((1R,5S,6r)-6-(1H-1,2,3-Triazol-5-yl)-3-azabicyclo[3.1.0]hexan-3-yl)-1,3,4-oxadiazol-2-yl)-N-(2-chlorophenethyl)pyrimidin-2-amine]: 96.4%. As to `Clc1cc(Cl)cc(CCNc2ncc(-c3nnc(N4C[C@@H]5[C@H](C4)[C@H]5c4cnn[nH]4)o3)cn2)c1` [Example 29, 5-(5-((1R,5S,6r)-6-(1H-1,2,3-Triazol-5-yl)-3-azabicyclo[3.1.0]hexan-3-yl)-1,3,4-oxadiazol-2-yl)-N-(3,5-dichlorophenethyl)pyrimidin-2-amine], the inhibition at 0.5 µM worked out at 97%. In the case of `COc1ccc(CCNc2ncc(-c3nnc(N4C[C@@H]5[C@H](C4)[C@H]5c4cnn[nH]4)o3)cn2)cc1` [Example 30, 5-(5-((1R,5S,6r)-6-(1H-1,2,3-Triazol-5-yl)-3-azabicyclo[3.1.0]hexan-3-yl)-1,3,4-oxadiazol-2-yl)-N-(4-methoxyphenethyl)pyrimidin-2-amine], the inhibition at 0.5 µM turned out to be 95.7%. On to `Cc1ccc(CCNc2ncc(-c3nnc(N4C[C@@H]5[C@H](C4)[C@H]5c4cnn[nH]4)o3)cn2)cc1` [Example 31, 5-(5-((1R,5S,6r)-6-(1H-1,2,3-Triazol-5-yl)-3-azabicyclo[3.1.0]hexan-3-yl)-1,3,4-oxadiazol-2-yl)-N-(4-methylphenethyl)pyrimidin-2-amine], for which the inhibition at 0.5 µM worked out at 97%. For the molecule `c1ccc(CCNc2ncc(-c3nnc(N4C[C@@H]5[C@H](C4)[C@H]5c4cnn[nH]4)o3)cn2)nc1` [Example 32, 5-(5-((1R,5S,6r)-6-(1H-1,2,3-Triazol-5-yl)-3-azabicyclo[3.1.0]hexan-3-yl)-1,3,4-oxadiazol-2-yl)-N-(2-(pyridin-2-yl)ethyl)pyrimidin-2-amine], the inhibition at 0.5 µM came to 48.7%. As for `N#Cc1ccc(CCNc2ncc(-c3nnc(N4C[C@@H]5[C@H](C4)[C@H]5c4cnn[nH]4)o3)cn2)cc1` [Example 33, 4-(2-((5-(5-((1R,5S,6r)-6-(1H-1,2,3-Triazol-5-yl)-3-azabicyclo[3.1.0]hexan-3-yl)-1,3,4-oxadiazol-2-yl)pyrimidin-2-yl)amino)ethyl)benzonitrile], the inhibition at 0.5 µM worked out at 93.7%.

Regarding `c1ccc2c(c1)CC[C@H]2Nc1ncc(-c2nnc(N3C[C@@H]4[C@H](C3)[C@H]4c3cnn[nH]3)o2)cn1` [Example 34, 5-(5-((1R,5S,6R)-6-(1H-1,2,3-Triazol-5-yl)-3-azabicyclo[3.1.0]hexan-3-yl)-1,3,4-oxadiazol-2-yl)-N-((R)-2,3-dihydro-1H-inden-1-yl)pyrimidin-2-amine], the inhibition at 0.5 µM came out at 90.8%. As to `c1ccc2c(c1)CC[C@@H]2Nc1ncc(-c2nnc(N3C[C@@H]4[C@H](C3)[C@H]4c3cnn[nH]3)o2)cn1` [Example 35, 5-(5-((1R,5S,6S)-6-(1H-1,2,3-Triazol-5-yl)-3-azabicyclo[3.1.0]hexan-3-yl)-1,3,4-oxadiazol-2-yl)-N-((S)-2,3-dihydro-1H-inden-1-yl)pyrimidin-2-amine], the inhibition at 0.5 µM was 96.8%. `c1ccc(Nc2ncc(-c3nnc(N4C[C@@H]5[C@H](C4)[C@H]5c4cnn[nH]4)o3)cn2)cc1` [Example 36, 5-(5-((1R,5S,6r)-6-(1H-1,2,3-Triazol-5-yl)-3-azabicyclo[3.1.0]hexan-3-yl)-1,3,4-oxadiazol-2-yl)-N-phenylpyrimidin-2-amine]: the inhibition at 0.5 µM came to 65.2%. Regarding `CN(CCc1ccc(Cl)cc1)c1ncc(-c2nnc(N3C[C@@H]4[C@H](C3)[C@H]4c3cnn[nH]3)o2)cn1` [Example 37, 5-(5-((1R,5S,6r)-6-(1H-1,2,3-Triazol-5-yl)-3-azabicyclo[3.1.0]hexan-3-yl)-1,3,4-oxadiazol-2-yl)-N-(4-chlorophenethyl)-N-methylpyrimidin-2-amine], the inhibition at 0.5 µM came out at 91.7%. Turning to `O=C(CCCc1nnc(NC2Cc3ccccc3C2)s1)N1C[C@@H]2[C@H](C1)[C@H]2c1cnn[nH]1` [Example 38, 1-((1R,5S,6r)-6-(1H-1,2,3-Triazol-5-yl)-3-azabicyclo[3.1.0]hexan-3-yl)-4-(5-((2,3-dihydro-1H-inden-2-yl)amino)-1,3,4-thiadiazol-2-yl)butan-1-one], the inhibition at 0.5 µM amounted to 25.5%. For `O=C(CCc1nnc(NC2Cc3ccccc3C2)s1)N1C[C@@H]2[C@H](C1)[C@H]2c1cnn[nH]1` [Example 39, 1-((1R,5S,6r)-6-(1H-1,2,3-Triazol-5-yl)-3-azabicyclo[3.1.0]hexan-3-yl)-3-(5-((2,3-dihydro-1H-inden-2-yl)amino)-1,3,4-thiadiazol-2-yl)propan-1-one], the inhibition at 0.5 µM was determined as 59.7%. For the molecule `Cc1nc(NCCc2ccc(Cl)cc2)ncc1-c1nnc(N2C[C@@H]3[C@H](C2)[C@H]3c2cnn[nH]2)o1` [Example 40, 5-(5-((1R,5S,6r)-6-(1H-1,2,3-Triazol-5-yl)-3-azabicyclo[3.1.0]hexan-3-yl)-1,3,4-oxadiazol-2-yl)-N-(4-chlorophenethyl)-4-methylpyrimidin-2-amine], the inhibition at 0.5 µM turned out to be 92.3%. Take `Clc1ccc(CCNc2ccc(-c3nnc(N4C[C@@H]5[C@H](C4)[C@H]5c4cnn[nH]4)o3)cn2)cc1` [Example 41, 5-(5-((1R,5S,6r)-6-(1H-1,2,3-Triazol-5-yl)-3-azabicyclo[3.1.0]hexan-3-yl)-1,3,4-oxadiazol-2-yl)-N-(4-chlorophenethyl)pyridin-2-amine]: the inhibition at 0.5 µM was determined as 95.8%. Consider `Clc1ccc(CCNc2cnc(-c3nnc(N4C[C@@H]5[C@H](C4)[C@H]5c4cnn[nH]4)o3)cn2)cc1` [Example 42, 5-(5-((1R,5S,6r)-6-(1H-1,2,3-Triazol-5-yl)-3-azabicyclo[3.1.0]hexan-3-yl)-1,3,4-oxadiazol-2-yl)-N-(4-chlorophenethyl)pyrazin-2-amine], for which the inhibition at 0.5 µM turned out to be 68.4%. Turning to `O=C(CCc1cnc(NCCc2ccc(Cl)cc2)nc1)N1C[C@@H]2[C@H](C1)[C@H]2c1cnn[nH]1` [Example 43, 1-((1R,5S,6r)-6-(1H-1,2,3-Triazol-5-yl)-3-azabicyclo[3.1.0]hexan-3-yl)-3-(2-((4-chlorophenethyl)amino)pyrimidin-5-yl)propan-1-one], the inhibition at 0.5 µM came out at 84.8%. Turning to `O=C(CCCc1cnc(NCc2cc(Cl)cc(Cl)c2)nc1)N1C[C@@H]2[C@H](C1)[C@H]2c1cnn[nH]1` [Example 44, 1-((1R,5S,6r)-6-(1H-1,2,3-Triazol-5-yl)-3-azabicyclo[3.1.0]hexan-3-yl)-4-(2-((3,5-dichlorobenzyl)amino)pyrimidin-5-yl)butan-1-one], the inhibition at 0.5 µM was found to be 58.6%.

As to `O=C(/C=C/c1cnc(NCCc2ccc(Cl)cc2)nc1)N1C[C@@H]2[C@H](C1)[C@H]2c1cnn[nH]1` [Example 45, (E)-1-((1R,5S,6r)-6-(1H-1,2,3-Triazol-5-yl)-3-azabicyclo[3.1.0]hexan-3-yl)-3-(2-((4-chlorophenethyl)amino)pyrimidin-5-yl)prop-2-en-1-one], the inhibition at 0.5 µM worked out at 98.7%. Next, `O=C(/C=C/c1cnc(NC2Cc3ccccc3C2)nc1)N1C[C@@H]2[C@H](C1)[C@H]2c1cnn[nH]1` [Example 46, (E)-1-((1R,5S,6r)-6-(1H-1,2,3-Triazol-5-yl)-3-azabicyclo[3.1.0]hexan-3-yl)-3-(2-((2,3-dihydro-1H-inden-2-yl)amino)pyrimidin-5-yl)prop-2-en-1-one]: 99.4%; `Cn1nncc1[C@H]1[C@@H]2CN(c3nnc(-c4cnc(NCCc5ccc(Cl)cc5)nc4)o3)C[C@@H]21` [Example 47, N-(4-Chlorophenethyl)-5-(5-((1R,5S,6r)-6-(1-methyl-1H-1,2,3-triazol-5-yl)-3-azabicyclo[3.1.0]hexan-3-yl)-1,3,4-oxadiazol-2-yl)pyrimidin-2-amine]: 13.9%. Next, `Cc1nn[nH]c1[C@H]1[C@@H]2CN(c3nnc(-c4cnc(NCCc5ccc(Cl)cc5)nc4)o3)C[C@@H]21` [Example 48, N-(4-Chlorophenethyl)-5-(5-((1R,5S,6r)-6-(4-methyl-1H-1,2,3-triazol-5-yl)-3-azabicyclo[3.1.0]hexan-3-yl)-1,3,4-oxadiazol-2-yl)pyrimidin-2-amine]: 34.7%.

These data come from patent EP4692083A1, “NOVEL AZABICYCLE DERIVATIVES AND PHARMACEUTICAL COMPOSITION FOR INHIBITING AUTOTAXIN, COMPRISING SAME” (Nextgen Bioscience Co., Ltd., priority 2023, dated 2024).
